Key:
Settings in all cases: scale 0 to 100
waterhemp [1] = assay: Test E preemergence; type: in vivo, Amaranthus rudis
Summary of the method: (§1)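 Soil-planted seeds received preemergence treatment, and 2-18 cm plants (1- to 4-leaf stage) postemergence treatment, with test chemicals in a non-phytotoxic solvent with surfactant. After 14 to 21 d in a greenhouse, injury was visually rated against controls on a 0 (no effect) to 100 (complete control) scale.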

surinam grass = assay: Test E preemergence; type: in vivo, Brachiaria decumbens
Summary of the method: as §1

crabgrass, large = assay: Test E preemergence; type: in vivo, Digitaria sanguinalis
Summary of the method: as §1

foxtail, green = assay: Test E preemergence; type: in vivo, Setaria viridis
Summary of the method: as §1

ragweed = assay: Test E preemergence; type: in vivo, Ambrosia elatior
Summary of the method: as §1

dayflower, VA [2] = assay: Test E preemergence; type: in vivo, Commelina virginica
Summary of the method: as §1

field bindweed [3] = assay: Test E preemergence; type: in vivo, Convolvulus arvensis
Summary of the method: as §1

morningglory = assay: Test E preemergence; type: in vivo, Ipomoea coccinea
Summary of the method: as §1

kochia = assay: Test E preemergence; type: in vivo, Kochia scoparia
Summary of the method: as §1

nutsedge, yellow = assay: Test E preemergence; type: in vivo, Cyperus esculentus
Summary of the method: as §1

velvetleaf = assay: Test E preemergence; type: in vivo, Abutilon theophrasti
Summary of the method: as §1

beggarticks [4] = assay: Test E preemergence; type: in vivo, Bidens pilosa
Summary of the method: as §1

[5] = tested on: waterhemp_RES1 (ALS & Triazine resistant common waterhemp); assay: Test E postemergence; type: in vivo, Amaranthus rudis
Summary of the method: as §1

[6] = tested on: waterhemp_RES2 (ALS & HPPD resistant common waterhemp); assay: Test E postemergence; type: in vivo, Amaranthus rudis
Summary of the method: as §1

waterhemp [7] = assay: Test E postemergence; type: in vivo, Amaranthus rudis
Summary of the method: as §1

panicum, fall = assay: Test E postemergence; type: in vivo, Panicum dichotomiflorum
Summary of the method: as §1

barnyardgrass = assay: Test E postemergence; type: in vivo, Echinochloa crus-galli
Summary of the method: as §1

dayflower, VA [8] = assay: Test E postemergence; type: in vivo, Commelina virginica
Summary of the method: as §1

field bindweed [9] = assay: Test E postemergence; type: in vivo, Convolvulus arvensis
Summary of the method: as §1

beggarticks [10] = assay: Test E postemergence; type: in vivo, Bidens pilosa
Summary of the method: as §1

SMILES: Fc1ccc(-c2nc(OCC(F)(F)F)n(Cc3ccnc(C(F)(F)F)c3)n2)cc1 [Compound 30]
- Plant response rating (waterhemp [1]; 31 g ai/ha): 100
- Plant response rating (waterhemp [1]; 62 g ai/ha): 100
- Plant response rating (waterhemp [1]; 125 g ai/ha): 100
- Plant response rating (waterhemp [1]; 250 g ai/ha): 100
- Plant response rating (surinam grass; 31 g ai/ha): 15
- Plant response rating (surinam grass; 62 g ai/ha): 20
- Plant response rating (surinam grass; 125 g ai/ha): 50
- Plant response rating (surinam grass; 250 g ai/ha): 70
- Plant response rating (crabgrass, large; 31 g ai/ha): 98
- Plant response rating (crabgrass, large; 62 g ai/ha): 98
- Plant response rating (crabgrass, large; 125 g ai/ha): 100
- Plant response rating (crabgrass, large; 250 g ai/ha): 100
- Plant response rating (foxtail, green; 31 g ai/ha): 95
- Plant response rating (foxtail, green; 62 g ai/ha): 100
- Plant response rating (foxtail, green; 125 g ai/ha): 100
- Plant response rating (foxtail, green; 250 g ai/ha): 100
- Plant response rating (ragweed; 31 g ai/ha): 65
- Plant response rating (ragweed; 62 g ai/ha): 50
- Plant response rating (ragweed; 125 g ai/ha): 70
- Plant response rating (ragweed; 250 g ai/ha): 98
- Plant response rating (dayflower, VA [2]; 31 g ai/ha): 5
- Plant response rating (dayflower, VA [2]; 62 g ai/ha): 10
- Plant response rating (dayflower, VA [2]; 125 g ai/ha): 25
- Plant response rating (dayflower, VA [2]; 250 g ai/ha): 65
- Plant response rating (field bindweed [3]; 31 g ai/ha): 10
- Plant response rating (field bindweed [3]; 62 g ai/ha): 25
- Plant response rating (field bindweed [3]; 125 g ai/ha): 65
- Plant response rating (field bindweed [3]; 250 g ai/ha): 75
- Plant response rating (morningglory; 31 g ai/ha): 25
- Plant response rating (morningglory; 62 g ai/ha): 15
- Plant response rating (morningglory; 125 g ai/ha): 15
- Plant response rating (morningglory; 250 g ai/ha): 65
- Plant response rating (kochia; 31 g ai/ha): 90
- Plant response rating (kochia; 62 g ai/ha): 100
- Plant response rating (kochia; 125 g ai/ha): 100
- Plant response rating (kochia; 250 g ai/ha): 100
- Plant response rating (nutsedge, yellow; 31 g ai/ha): 0
- Plant response rating (nutsedge, yellow; 62 g ai/ha): 0
- Plant response rating (nutsedge, yellow; 125 g ai/ha): 0
- Plant response rating (nutsedge, yellow; 250 g ai/ha): 0
- Plant response rating (velvetleaf; 31 g ai/ha): 50
- Plant response rating (velvetleaf; 62 g ai/ha): 65
- Plant response rating (velvetleaf; 125 g ai/ha): 75
- Plant response rating (velvetleaf; 250 g ai/ha): 90
- Plant response rating (beggarticks [4]; 31 g ai/ha): 0
- Plant response rating (beggarticks [4]; 62 g ai/ha): 10
- Plant response rating (beggarticks [4]; 125 g ai/ha): 20
- Plant response rating (beggarticks [4]; 250 g ai/ha): 50
- Plant response rating ([5]; 31 g ai/ha): 95
- Plant response rating ([5]; 62 g ai/ha): 98
- Plant response rating ([5]; 125 g ai/ha): 100
- Plant response rating ([5]; 250 g ai/ha): 95
- Plant response rating ([6]; 31 g ai/ha): 95
- Plant response rating ([6]; 62 g ai/ha): 95
- Plant response rating ([6]; 125 g ai/ha): 95
- Plant response rating ([6]; 250 g ai/ha): 95
- Plant response rating (waterhemp [7]; 31 g ai/ha): 95
- Plant response rating (waterhemp [7]; 62 g ai/ha): 95
- Plant response rating (waterhemp [7]; 125 g ai/ha): 95
- Plant response rating (waterhemp [7]; 250 g ai/ha): 95
- Plant response rating (panicum, fall; 31 g ai/ha): 20
- Plant response rating (panicum, fall; 62 g ai/ha): 30
- Plant response rating (panicum, fall; 125 g ai/ha): 35
- Plant response rating (panicum, fall; 250 g ai/ha): 30
- Plant response rating (barnyardgrass; 31 g ai/ha): 30
- Plant response rating (barnyardgrass; 62 g ai/ha): 50
- Plant response rating (barnyardgrass; 125 g ai/ha): 90
- Plant response rating (barnyardgrass; 250 g ai/ha): 100
- Plant response rating (dayflower, VA [8]; 31 g ai/ha): 60
- Plant response rating (dayflower, VA [8]; 62 g ai/ha): 70
- Plant response rating (dayflower, VA [8]; 125 g ai/ha): 80
- Plant response rating (dayflower, VA [8]; 250 g ai/ha): 90
- Plant response rating (field bindweed [9]; 31 g ai/ha): 70
- Plant response rating (field bindweed [9]; 62 g ai/ha): 70
- Plant response rating (field bindweed [9]; 125 g ai/ha): 75
- Plant response rating (field bindweed [9]; 250 g ai/ha): 70
- Plant response rating (beggarticks [10]; 31 g ai/ha): 50
- Plant response rating (beggarticks [10]; 62 g ai/ha): 60
- Plant response rating (beggarticks [10]; 125 g ai/ha): 70
- Plant response rating (beggarticks [10]; 250 g ai/ha): 75
